Measurements published in patent publication US20250066376A1, “OPIOID RECEPTOR ANTAGONIST PRODRUGS” (Nirsum Laboratories, Inc., priority 2024, published 2025).

Assay: Solubility of naloxone and naltrexone prodrug compounds
Format: physicochemical
Conditions: for Solubility in water: lower limit of aqueous solubility; for Solubility in cottonseed oil / Solubility in miglyol 812N / Solubility in sesame oil: solubility study in oil excipients at 50 mg/ml (base equivalents)
From the text: Example 12: Solubility of Naloxone and Naltrexone Prodrug Compounds
Table 12 and Table 13 report the solubility data for the naloxone and naltrexone prodrug compounds, respectively.

| Structure (SMILES) | Solubility in water | Solubility in cottonseed oil (naloxone prodrugs (Table 12)) | Solubility in miglyol 812N (naloxone prodrugs (Table 12)) | Solubility in sesame oil (naloxone prodrugs (Table 12)) | Solubility in cottonseed oil (naltrexone prodrugs (Table 13)) | Solubility in miglyol 812N (naltrexone prodrugs (Table 13)) | Solubility in sesame oil (naltrexone prodrugs (Table 13)) |
| --- | --- | --- | --- | --- | --- | --- | --- |
| C=CCN1CC[C@]23c4c5ccc(OCOC(=O)CCCCC)c4O[C@H]2C(=O)CC[C@@]3(O)[C@H]1C5 [III-1, [(3R,4aS,7aR,12bS)-3-allyl-4a-hydroxy-7-oxo-2,4,5,6,7a,13-hexahydro-1H-4,12-methanobenzofuro[3,2-e]isoquinoline-9-yl]oxymethyl hexanoate] | Solubility in water: <0.001 mg/mL | In cottonseed oil: >50.03 mg/ml | In miglyol 812N: <50.53 mg/ml | In sesame oil: >50.01 mg/ml |  |  |  |
| C=CCN1CC[C@]23c4c5ccc(OCOC(=O)CCCCC)c4O[C@H]2C(=O)CC[C@@]3(O)[C@H]1C5 [III-2, [(3R,4aS,7aR,12bS)-3-allyl-4a-hydroxy-7-oxo-2,4,5,6,7a,13-hexahydro-1H-4,12-methanobenzofuro[3,2-e]isoquinoline-9-yl]oxymethyl hexanoate] | Solubility in water: <0.001 mg/mL | In cottonseed oil: >50.48 mg/ml | In miglyol 812N: <50.28 mg/ml | In sesame oil: <50.44 mg/ml |  |  |  |
| CCCCOC(=O)OCOc1ccc2c3c1O[C@H]1C(=O)CC[C@@]4(O)[C@@H](C2)N(CC2CC2)CC[C@]314 [IV-4, [(3R,4aS,7aR,12bS)-3-(cyclopropylmethyl)-4a-hydroxy-7-oxo-2,4,5,6,7a,13-hexahydro-1H-4,12-methanobenzofuro[3,2-e]isoquinoline-9-yl]oxymethyl butyl carbonate] | Solubility in water: <0.001 mg/mL |  |  |  | In cottonseed oil: <50.12 mg/mL | In miglyol 812N: <50.41 mg/mL | In sesame oil: <50.07 mg/mL |
| CCCCCCOC(=O)OCOc1ccc2c3c1O[C@H]1C(=O)CC[C@@]4(O)[C@@H](C2)N(CC2CC2)CC[C@]314 [IV-5, [(3R,4aS,7aR,12bS)-3-(cyclopropylmethyl)-4a-hydroxy-7-oxo-2,4,5,6,7a,13-hexahydro-1H-4,12-methanobenzofuro[3,2-e]isoquinoline-9-yl]oxymethyl hexyl carbonate] | Solubility in water: <0.001 mg/mL |  |  |  | In cottonseed oil: <50.19 mg/mL | In miglyol 812N: <50.24 mg/mL | In sesame oil: >50.31 mg/mL |
| CCCCCCCCOC(=O)OCOc1ccc2c3c1O[C@H]1C(=O)CC[C@@]4(O)[C@@H](C2)N(CC2CC2)CC[C@]314 [IV-6, [(3R,4aS,7aR,12bS)-3-(cyclopropylmethyl)-4a-hydroxy-7-oxo-2,4,5,6,7a,13-hexahydro-1H-4,12-methanobenzofuro[3,2-e]isoquinoline-9-yl]oxymethyl octyl carbonate] | Solubility in water: <0.001 mg/mL |  |  |  | In cottonseed oil: >50.28 mg/mL | In miglyol 812N: >50.11 mg/mL | In sesame oil: >50.43 mg/mL |
